Values of other authors in patent US20190357582A1, “Methods For Inducing Adipocyte Browning, Improving Metabolic Flexibility, And Reducing Detrimental White Adipose Tissue Deposition And Dysfunction” (MEAD JOHNSON NUTRITION COMPANY, priority 2017, published 2019).

System: UCP1
Details: positive control for browning

Compound: COc1ccc2c(c1)[nH]c1c(C)nccc12 [Harmine]
- browning activity: browning activity
